pEC50, pIC50: −log10 of the molar value. Activity calls are given as the source filed them. The rule behind the calls is not given here.
Assays:
[1] = biological target: T1, Glucocorticoid receptor (Homo sapiens, UniProt P04150); experiment: Transrepression activity at glucocorticoid receptor in human H292 cells assessed as inhibition of TNF-stimulated IL-8 production; assay type: cell-based
T1 sequence (P04150 whole entry): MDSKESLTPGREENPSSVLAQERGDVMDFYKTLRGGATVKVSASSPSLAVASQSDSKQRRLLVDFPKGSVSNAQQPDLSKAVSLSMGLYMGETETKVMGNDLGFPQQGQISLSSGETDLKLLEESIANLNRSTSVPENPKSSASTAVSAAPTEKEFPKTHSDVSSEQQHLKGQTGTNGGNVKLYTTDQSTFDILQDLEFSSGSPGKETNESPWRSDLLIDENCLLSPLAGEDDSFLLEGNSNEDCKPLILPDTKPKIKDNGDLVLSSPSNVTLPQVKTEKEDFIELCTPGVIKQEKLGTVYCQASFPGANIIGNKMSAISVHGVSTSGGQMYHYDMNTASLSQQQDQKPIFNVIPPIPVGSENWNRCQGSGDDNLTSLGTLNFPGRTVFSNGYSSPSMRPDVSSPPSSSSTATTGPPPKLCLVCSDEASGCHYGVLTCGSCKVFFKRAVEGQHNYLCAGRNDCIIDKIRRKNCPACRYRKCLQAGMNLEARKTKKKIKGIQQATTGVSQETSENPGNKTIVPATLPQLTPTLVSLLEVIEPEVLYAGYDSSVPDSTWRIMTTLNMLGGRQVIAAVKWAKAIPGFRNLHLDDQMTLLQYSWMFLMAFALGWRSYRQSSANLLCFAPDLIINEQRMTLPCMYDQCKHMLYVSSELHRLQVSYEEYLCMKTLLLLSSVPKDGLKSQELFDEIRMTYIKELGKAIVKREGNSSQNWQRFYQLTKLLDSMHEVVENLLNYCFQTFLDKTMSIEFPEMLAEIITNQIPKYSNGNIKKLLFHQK

[2] = test system: Rattus norvegicus; experiment: Antiinflammatory activity in po dosed ovalbumin-induced allergic Brown Norway rat lung inflammation model assessed as inhibition of forced vital capacity administered 3 days before ovalbumin-challenge measured 24 hrs of post ovalbumin challenge; assay type: functional
[3] = test system: Rattus norvegicus; experiment: Antiinflammatory activity against Brown Norway rat allergic lung inflammation model assessed as total cell inhibition at 10 mg/kg, po for 3 days; assay type: functional; parameters: scale not given: the % may be the effect or the level left
[4] = test system: Rattus norvegicus; experiment: Antiinflammatory activity in rat assessed as inhibition of LPS-induced TNF-alpha secretion up to 50 mg/kg, po; assay type: functional, organism-based; parameters: dose 50 mg/kg
[5] = test system: Rattus norvegicus; experiment: Antiinflammatory activity against Brown Norway rat allergic lung inflammation model assessed as total cell inhibition at 0.3 to 30 mg/kg, po for 10 days relative to prednisolone; assay type: functional, organism-based
[6] = test system: Rattus norvegicus; experiment: Toxicity in Brown Norway rat allergic lung inflammation model assessed as decrease in thymus weight at 10 mg/kg, po for 3 days; assay type: organism-based; parameters: dose 10 mg/kg, route oral; scale not given: the % may be the effect or the level left; details: in vivo, 72 h
[7] = test system: Rattus norvegicus; experiment: Antiinflammatory activity in ovalbumin-induced allergic Brown Norway rat lung inflammation model assessed as inhibition of forced vital capacity at 30 mg/kg, po qd administered 3 days before ovalbumin-challenge measured 24 hrs of post ovalbumin challenge; assay type: functional
[8] = test system: Rattus norvegicus; experiment: Antiinflammatory activity in ovalbumin-induced allergic Brown Norway rat lung inflammation model assessed as inhibition of forced vital capacity at 3 mg/kg, po qd administered 3 days before ovalbumin-challenge measured 24 hrs of post ovalbumin challenge; assay type: functional
[9] = biological target: T2, Glucocorticoid receptor (Rattus norvegicus, UniProt P06536); experiment: Transactivation of glucocorticoid receptor in rat H42E cells assessed as induction of TAT measuring degradation of tyrosine to p-hydroxy phenyl pyruvate; assay type: cell-based; details: read-out: IC50 (the source's name)
T2 sequence (P06536 whole entry): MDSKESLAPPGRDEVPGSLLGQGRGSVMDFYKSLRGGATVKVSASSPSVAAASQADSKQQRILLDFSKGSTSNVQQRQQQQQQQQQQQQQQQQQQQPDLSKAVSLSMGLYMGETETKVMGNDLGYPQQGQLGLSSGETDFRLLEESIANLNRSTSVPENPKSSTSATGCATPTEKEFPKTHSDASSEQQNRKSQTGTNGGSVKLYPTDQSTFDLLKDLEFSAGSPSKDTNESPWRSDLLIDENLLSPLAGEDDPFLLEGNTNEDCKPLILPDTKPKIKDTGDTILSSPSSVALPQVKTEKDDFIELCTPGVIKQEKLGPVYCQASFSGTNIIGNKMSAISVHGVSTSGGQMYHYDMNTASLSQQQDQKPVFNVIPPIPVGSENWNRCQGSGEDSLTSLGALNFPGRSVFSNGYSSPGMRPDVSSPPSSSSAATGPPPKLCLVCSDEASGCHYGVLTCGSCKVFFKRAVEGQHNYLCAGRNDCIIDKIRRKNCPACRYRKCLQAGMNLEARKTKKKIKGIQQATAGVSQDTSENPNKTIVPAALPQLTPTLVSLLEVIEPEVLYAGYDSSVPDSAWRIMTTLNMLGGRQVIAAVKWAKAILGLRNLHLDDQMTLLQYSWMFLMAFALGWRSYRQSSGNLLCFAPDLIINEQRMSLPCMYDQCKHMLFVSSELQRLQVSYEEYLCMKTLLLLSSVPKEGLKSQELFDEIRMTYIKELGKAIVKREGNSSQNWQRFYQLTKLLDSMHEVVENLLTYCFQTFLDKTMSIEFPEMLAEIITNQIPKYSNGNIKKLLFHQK

[10] = biological target: T1, Glucocorticoid receptor; experiment: Transactivation of glucocorticoid receptor in human HepG2 cells assessed as induction of TAT measuring degradation of tyrosine to p-hydroxy phenyl pyruvate at 1 uM relative to untreated control; assay type: cell-based; details: hepg2, 1 µM
[11] = test system: Rattus norvegicus; experiment: Antiinflammatory activity in ovalbumin-induced allergic Brown Norway rat lung inflammation model assessed as inhibition of forced vital capacity at 10 mg/kg, po qd administered 3 days before ovalbumin-challenge measured 24 hrs of post ovalbumin challenge; assay type: functional
[12] = biological target: T3, Progesterone receptor (Homo sapiens, UniProt P06401); experiment: Inhibition of human progesterone receptor
T3 sequence (P06401 whole entry): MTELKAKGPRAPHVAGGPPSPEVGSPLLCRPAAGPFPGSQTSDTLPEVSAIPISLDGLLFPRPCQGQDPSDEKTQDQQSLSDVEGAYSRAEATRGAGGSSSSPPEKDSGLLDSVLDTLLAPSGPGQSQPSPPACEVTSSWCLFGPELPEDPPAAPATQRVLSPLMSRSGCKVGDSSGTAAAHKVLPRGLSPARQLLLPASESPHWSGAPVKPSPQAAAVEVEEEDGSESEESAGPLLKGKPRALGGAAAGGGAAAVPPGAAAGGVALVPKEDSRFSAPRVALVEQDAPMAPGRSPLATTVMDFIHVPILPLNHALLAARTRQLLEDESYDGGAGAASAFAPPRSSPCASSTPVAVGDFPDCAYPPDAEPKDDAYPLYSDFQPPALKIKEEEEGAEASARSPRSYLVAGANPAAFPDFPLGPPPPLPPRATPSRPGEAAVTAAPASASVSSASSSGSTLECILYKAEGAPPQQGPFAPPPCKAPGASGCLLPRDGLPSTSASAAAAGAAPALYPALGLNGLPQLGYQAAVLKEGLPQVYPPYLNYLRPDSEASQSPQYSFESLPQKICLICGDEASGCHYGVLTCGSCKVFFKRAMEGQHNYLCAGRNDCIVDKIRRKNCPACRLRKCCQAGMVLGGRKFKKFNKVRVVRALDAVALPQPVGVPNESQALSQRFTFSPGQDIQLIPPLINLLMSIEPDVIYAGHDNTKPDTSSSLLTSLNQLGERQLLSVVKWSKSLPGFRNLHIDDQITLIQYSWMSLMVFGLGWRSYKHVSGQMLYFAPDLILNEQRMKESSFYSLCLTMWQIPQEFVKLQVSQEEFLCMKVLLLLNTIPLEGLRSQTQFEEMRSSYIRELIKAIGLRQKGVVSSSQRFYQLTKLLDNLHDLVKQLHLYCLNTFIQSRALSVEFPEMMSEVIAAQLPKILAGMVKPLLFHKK

[13] = biological target: T2, Glucocorticoid receptor; experiment: Transactivation of glucocorticoid receptor in rat H42E cells assessed as induction of TAT measuring degradation of tyrosine to p-hydroxy phenyl pyruvate at 1 uM relative to prednisolone; assay type: cell-based; details: read-out: Efficacy
[14] = biological target: T1, Glucocorticoid receptor; experiment: Inhibition of human glucocorticoid receptor
[15] = AUC in Brown Norway rat at 10 mg/kg, po; assay type: ADME, organism-based; parameters: dose 10 mg/kg, route oral; details: plasma
[16] = test system: Rattus norvegicus; experiment: Toxicity in Brown Norway rat allergic lung inflammation model assessed as decrease in thymus weight at 0.3 to 30 mg/kg, po for 10 days; assay type: organism-based; parameters: dose 0.3-30 mg/kg, route oral; details: in vivo, 240 h

pIC50 [1] | pEC50 [9] | Efficacy [10] [%] | pIC50 [12] | Emax at 1 µM [13] [%] | pIC50 [14] | AUC [15] [ng·h/mL] | Structure (SMILES) | ED50 [2] [mg/kg] | Activity [3] [%] | inhibition [4] | Activity [5] | Activity [6] [%] | inhibition in vivo at 30 mg/kg [7] [%] | inhibition in vivo at 3 mg/kg [8] [%] | inhibition in vivo at 10 mg/kg [11] [%] | Activity [16]
7.33 | 6.63 | 11 | 5.86 | 4 | 8.14 | 960 | Cn1c(SCC(=O)[C@@]2(O)CC[C@H]3[C@@H]4CCC5=CC(=O)C=C[C@]5(C)[C@H]4[C@@H](O)C[C@@]32C)nc2ccccc21 | 10 | 58 | Active | Active | 4 | 71 | 23 | 50 | Toxic
– | – | 81 | – | 100 | – | 1250 | C[C@]12C=CC(=O)C=C1CC[C@@H]1[C@@H]2[C@@H](O)C[C@@]2(C)[C@H]1CC[C@]2(O)C(=O)CO [PREDNISOLONE] | 5 | 56 | – | – | 53 | 111 | 43 | 81 | –
